Laboratory results published in PubChem BioAssay (NCI).
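Cultured in 96-well plates, cells were exposed to test compound for 48 hours across five concentrations. TGI marks complete inhibition of growth.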

What was measured:
Experiment in all cases: NCI anticancer screen, dose series, 48 h
HOP-92 NSCLC = system: HOP-92 NSCLC
KM12 colon = system: KM12 colon
OVCAR-4 ovarian = system: OVCAR-4 ovarian
SF-295 CNS = system: SF-295 CNS
M14 melanoma = system: M14 melanoma
SF-268 CNS = system: SF-268 CNS
EKVX NSCLC = system: EKVX NSCLC
OVCAR-8 ovarian = system: OVCAR-8 ovarian
NCI-H23 lung = system: NCI-H23 lung
DLD-1 colon = system: DLD-1 colon
U251 CNS = system: U251 CNS
IGROV1 ovarian = system: IGROV1 ovarian
HL-60(TB) leukemia = system: HL-60(TB) leukemia
MOLT-4 leukemia = system: MOLT-4 leukemia
SF-539 CNS = system: SF-539 CNS
NCI-H460 lung = system: NCI-H460 lung
RPMI-8226 leukemia = system: RPMI-8226 leukemia
COLO 205 colon = system: COLO 205 colon
LXFL 529 NSCLC = system: LXFL 529 NSCLC
A549 NSCLC = system: A549 NSCLC
MALME-3M melanoma = system: MALME-3M melanoma
OVCAR-3 ovarian = system: OVCAR-3 ovarian
SR leukemia = system: SR leukemia
HCT-116 colon = system: HCT-116 colon
M19-MEL melanoma = system: M19-MEL melanoma
UACC-62 melanoma = system: UACC-62 melanoma
CCRF-CEM leukemia = system: CCRF-CEM leukemia
SK-MEL-5 melanoma = system: SK-MEL-5 melanoma
DMS 114 small cell lung = system: DMS 114 small cell lung
NCI-H522 lung = system: NCI-H522 lung
HCT-15 colon = system: HCT-15 colon
SK-MEL-28 melanoma = system: SK-MEL-28 melanoma
A498 renal = system: A498 renal
LOX IMVI melanoma = system: LOX IMVI melanoma
RXF 393 renal = system: RXF 393 renal
HT29 colon = system: HT29 colon
SNB-19 CNS = system: SNB-19 CNS
SK-MEL-2 melanoma = system: SK-MEL-2 melanoma
SN12C renal = system: SN12C renal
SNB-78 CNS = system: SNB-78 CNS
SNB-75 CNS = system: SNB-75 CNS
HCC-2998 colon = system: HCC-2998 colon
TK-10 renal = system: TK-10 renal
DMS 273 small cell lung = system: DMS 273 small cell lung
ACHN renal = system: ACHN renal
SW-620 colon = system: SW-620 colon
NCI-H226 lung = system: NCI-H226 lung
XF 498 CNS = system: XF 498 CNS
KM20L2 colon = system: KM20L2 colon
UACC-257 melanoma = system: UACC-257 melanoma
HOP-62 NSCLC = system: HOP-62 NSCLC
OVCAR-5 ovarian = system: OVCAR-5 ovarian
SK-OV-3 ovarian = system: SK-OV-3 ovarian
786-0 renal = system: 786-0 renal
K-562 leukemia = system: K-562 leukemia
CAKI-1 renal = system: CAKI-1 renal
UO-31 renal = system: UO-31 renal

CN(/N=N/c1nc[nH]c1C(N)=O)C1CCCCC1
TGI (HOP-92 NSCLC): > 100 µM | TGI (KM12 colon): > 100 µM | TGI (OVCAR-4 ovarian): > 100 µM | TGI (SF-295 CNS): > 100 µM | TGI (M14 melanoma): > 100 µM | TGI (SF-268 CNS): > 100 µM | TGI (EKVX NSCLC): > 100 µM | TGI (OVCAR-8 ovarian): > 100 µM | TGI (NCI-H23 lung): > 100 µM | TGI (DLD-1 colon): > 100 µM | TGI (U251 CNS): > 100 µM | TGI (IGROV1 ovarian): > 100 µM | TGI (HL-60(TB) leukemia): > 100 µM | TGI (MOLT-4 leukemia): > 100 µM | TGI (SF-539 CNS): > 100 µM | TGI (NCI-H460 lung): > 100 µM | TGI (RPMI-8226 leukemia): > 100 µM | TGI (COLO 205 colon): > 100 µM | TGI (LXFL 529 NSCLC): > 100 µM | TGI (A549 NSCLC): > 100 µM | TGI (MALME-3M melanoma): > 100 µM | TGI (OVCAR-3 ovarian): > 100 µM | TGI (SR leukemia): > 100 µM | TGI (HCT-116 colon): > 100 µM | TGI (M19-MEL melanoma): > 100 µM | TGI (UACC-62 melanoma): > 100 µM | TGI (CCRF-CEM leukemia): > 100 µM | TGI (SK-MEL-5 melanoma): > 100 µM | TGI (DMS 114 small cell lung): > 100 µM | TGI (NCI-H522 lung): > 100 µM | TGI (HCT-15 colon): > 100 µM | TGI (SK-MEL-28 melanoma): > 100 µM | TGI (A498 renal): > 100 µM | TGI (LOX IMVI melanoma): > 100 µM | TGI (RXF 393 renal): > 100 µM | TGI (HT29 colon): > 100 µM | TGI (SNB-19 CNS): > 100 µM | TGI (SK-MEL-2 melanoma): > 100 µM | TGI (SN12C renal): > 100 µM | TGI (SNB-78 CNS): > 100 µM | TGI (SNB-75 CNS): > 100 µM | TGI (HCC-2998 colon): > 100 µM | TGI (TK-10 renal): > 100 µM | TGI (DMS 273 small cell lung): > 100 µM | TGI (ACHN renal): > 100 µM | TGI (SW-620 colon): > 100 µM | TGI (NCI-H226 lung): > 100 µM | TGI (XF 498 CNS): > 100 µM | TGI (KM20L2 colon): > 100 µM | TGI (UACC-257 melanoma): > 100 µM | TGI (HOP-62 NSCLC): > 100 µM | TGI (OVCAR-5 ovarian): > 100 µM | TGI (SK-OV-3 ovarian): > 100 µM

O=C(N/C(=C\c1cc(Cl)ccc1Cl)c1nc2ccc(Cl)cc2[nH]1)c1ccccc1
TGI (786-0 renal): 71.9 µM | TGI (HOP-92 NSCLC): 24.4 µM | TGI (KM12 colon): 29.4 µM | TGI (OVCAR-4 ovarian): 68.6 µM | TGI (SF-295 CNS): 31.3 µM | TGI (M14 melanoma): 31.1 µM | TGI (SF-268 CNS): 28.1 µM | TGI (EKVX NSCLC): 50.6 µM | TGI (OVCAR-8 ovarian): 31.6 µM | TGI (NCI-H23 lung): 28.7 µM | TGI (DLD-1 colon): 26.7 µM | TGI (U251 CNS): 30.1 µM | TGI (IGROV1 ovarian): 29.8 µM | TGI (HL-60(TB) leukemia): 37.1 µM | TGI (MOLT-4 leukemia): 37.2 µM | TGI (SF-539 CNS): 35.1 µM | TGI (NCI-H460 lung): 30.5 µM | TGI (RPMI-8226 leukemia): 40.4 µM | TGI (COLO 205 colon): 33.6 µM | TGI (LXFL 529 NSCLC): 28.1 µM | TGI (A549 NSCLC): 38.1 µM | TGI (MALME-3M melanoma): 35.8 µM | TGI (OVCAR-3 ovarian): 35.1 µM | TGI (SR leukemia): 25.5 µM | TGI (HCT-116 colon): 22.3 µM | TGI (M19-MEL melanoma): 30 µM | TGI (K-562 leukemia): 41.1 µM | TGI (UACC-62 melanoma): 24.8 µM | TGI (CCRF-CEM leukemia): 51.4 µM | TGI (SK-MEL-5 melanoma): 25.9 µM | TGI (DMS 114 small cell lung): 29.8 µM | TGI (NCI-H522 lung): 25 µM | TGI (HCT-15 colon): 31 µM | TGI (SK-MEL-28 melanoma): 32.4 µM | TGI (A498 renal): 41.9 µM | TGI (LOX IMVI melanoma): 26.4 µM | TGI (RXF 393 renal): 29.2 µM | TGI (HT29 colon): 30.9 µM | TGI (SNB-19 CNS): 60.1 µM | TGI (SK-MEL-2 melanoma): 32.4 µM | TGI (SN12C renal): 34 µM | TGI (SNB-78 CNS): 54.8 µM | TGI (SNB-75 CNS): 35.2 µM | TGI (HCC-2998 colon): 32.4 µM | TGI (TK-10 renal): 10.9 µM | TGI (CAKI-1 renal): 66.4 µM | TGI (ACHN renal): 78.1 µM | TGI (SW-620 colon): 31.1 µM | TGI (UO-31 renal): 24.4 µM | TGI (NCI-H226 lung): 42.4 µM | TGI (KM20L2 colon): 32.2 µM | TGI (UACC-257 melanoma): 28.3 µM | TGI (HOP-62 NSCLC): 32.3 µM | TGI (OVCAR-5 ovarian): 60.1 µM | TGI (SK-OV-3 ovarian): 51.8 µM

CC(=O)Nc1ccc(C(=O)NN2C(=O)C(Cl)C2c2ccc(O)cc2)cc1 (stereo unspecified)
TGI (786-0 renal): > 100 µM | TGI (OVCAR-4 ovarian): > 100 µM | TGI (SF-295 CNS): > 100 µM | TGI (M14 melanoma): > 100 µM | TGI (SF-268 CNS): > 100 µM | TGI (EKVX NSCLC): > 100 µM | TGI (OVCAR-8 ovarian): > 100 µM | TGI (DLD-1 colon): > 100 µM | TGI (U251 CNS): > 100 µM | TGI (IGROV1 ovarian): > 100 µM | TGI (HL-60(TB) leukemia): > 100 µM | TGI (MOLT-4 leukemia): > 100 µM | TGI (SF-539 CNS): > 100 µM | TGI (NCI-H460 lung): > 100 µM | TGI (COLO 205 colon): > 100 µM | TGI (LXFL 529 NSCLC): > 100 µM | TGI (A549 NSCLC): > 100 µM | TGI (MALME-3M melanoma): > 100 µM | TGI (OVCAR-3 ovarian): > 100 µM | TGI (HCT-116 colon): > 100 µM | TGI (M19-MEL melanoma): > 100 µM | TGI (K-562 leukemia): > 100 µM | TGI (UACC-62 melanoma): > 100 µM | TGI (CCRF-CEM leukemia): > 100 µM | TGI (SK-MEL-5 melanoma): > 100 µM | TGI (NCI-H522 lung): > 100 µM | TGI (HCT-15 colon): > 100 µM | TGI (SK-MEL-28 melanoma): > 100 µM | TGI (A498 renal): > 100 µM | TGI (LOX IMVI melanoma): > 100 µM | TGI (RXF 393 renal): > 100 µM | TGI (HT29 colon): > 100 µM | TGI (SNB-19 CNS): > 100 µM | TGI (SK-MEL-2 melanoma): > 100 µM | TGI (SN12C renal): > 100 µM | TGI (SNB-78 CNS): > 100 µM | TGI (SNB-75 CNS): > 100 µM | TGI (TK-10 renal): > 100 µM | TGI (DMS 273 small cell lung): > 100 µM | TGI (CAKI-1 renal): > 100 µM | TGI (ACHN renal): > 100 µM | TGI (SW-620 colon): > 100 µM | TGI (UO-31 renal): > 100 µM | TGI (NCI-H226 lung): > 100 µM | TGI (XF 498 CNS): > 100 µM | TGI (KM20L2 colon): > 100 µM | TGI (UACC-257 melanoma): > 100 µM | TGI (HOP-62 NSCLC): > 100 µM | TGI (OVCAR-5 ovarian): > 100 µM | TGI (SK-OV-3 ovarian): > 100 µM

Cc1nc2ccccc2c(=O)n1/N=C(\N=Nc1cccc(Cl)c1)c1ccccc1Cl
TGI (786-0 renal): > 100 µM | TGI (HOP-92 NSCLC): 58.5 µM | TGI (SF-295 CNS): 71.5 µM | TGI (M14 melanoma): > 100 µM | TGI (EKVX NSCLC): > 100 µM | TGI (OVCAR-8 ovarian): > 100 µM | TGI (NCI-H23 lung): > 100 µM | TGI (DLD-1 colon): > 100 µM | TGI (U251 CNS): > 100 µM | TGI (SF-539 CNS): 89 µM | TGI (NCI-H460 lung): > 100 µM | TGI (RPMI-8226 leukemia): > 100 µM | TGI (A549 NSCLC): > 100 µM | TGI (HCT-116 colon): > 100 µM | TGI (M19-MEL melanoma): > 100 µM | TGI (K-562 leukemia): 3.73 µM | TGI (UACC-62 melanoma): > 100 µM | TGI (SK-MEL-5 melanoma): > 100 µM | TGI (NCI-H522 lung): > 100 µM | TGI (HCT-15 colon): > 100 µM | TGI (LOX IMVI melanoma): > 100 µM | TGI (RXF 393 renal): 55.2 µM | TGI (HT29 colon): > 100 µM | TGI (SN12C renal): > 100 µM | TGI (TK-10 renal): > 100 µM | TGI (DMS 273 small cell lung): > 100 µM | TGI (CAKI-1 renal): > 100 µM | TGI (SW-620 colon): > 100 µM | TGI (UO-31 renal): > 100 µM | TGI (XF 498 CNS): 3.91 µM | TGI (KM20L2 colon): > 100 µM | TGI (HOP-62 NSCLC): > 100 µM | TGI (SK-OV-3 ovarian): 62.8 µM
